Laboratory results reported in ChEMBL document CHEMBL4393685, “Synthesis and evaluation of pyrimidoindole analogs in umbilical cord blood ex vivo expansion” (Eur J Med Chem, 2019).

Tests used:
Assay type in all cases: functional
[1] = Stimulation of ex vivo expansion of human CD34+ cells assessed as CD34+/CD38- level at 0.01 to 1 uM incubated for 7 days supplemented with 50% fresh medium containing cytokines every other day by flow cytometry relative to control
[2] = Stimulation of ex vivo expansion of human CD34+ cells assessed as CD34+CD38- level at 0.01 to 1 uM incubated for 7 days supplemented with 50% fresh medium containing cytokines every other day by flow cytometry (reference value: 19.10 +/- 0.35%)
[3] = Stimulation of ex vivo expansion of human CD34+ cells assessed as CD34+CD38- level incubated for 7 days supplemented with 50% fresh medium containing cytokines every other day by flow cytometry
[4] = Stimulation of ex vivo expansion of human CD34+ cells assessed as CD34postive phenotypic levels after 7 days by carboxyfluorescein succinimidyl ester dye based assay
[5] = Ex vivo expansion of human CD34+ cells assessed as increase in CD34+ cell level after 5 to 7 days by […]
[6] = Homo sapiens, 168 h, read-out: EC50

Row | SMILES | fold change (FC) [1] | Activity [2] [%] | EC50 [3] | EC50 [3, 6] [nM] | Activity [4] [%] | EC50 [5] [nM]
1 | Cn1nnc(-c2ccc3c(c2)[nH]c2nc(Cc4ccccc4)nc(NCCc4ccc(O)cc4)c23)n1 | 0.95 | 18.2 | Nd(Toxic) |  |  | 
2 | Cn1nnc(-c2ccc3[nH]c4nc(Cc5ccccc5)nc(Nc5cccc(Br)c5)c4c3c2)n1 | 1.19 | 22.63 | Nd(Toxic) |  |  | 
3 | Cn1nnc(-c2ccc3[nH]c4nc(Cc5ccccc5)nc(N[C@H]5CC[C@H](O)CC5)c4c3c2)n1 | 0.94 | 17.9 | Nd(Toxic) |  |  | 
4 | COc1ccc(Nc2nc(Cc3ccccc3)nc3[nH]c4ccc(-c5nnn(C)n5)cc4c23)cc1 | 1.01 | 19.34 | Nd(Toxic) |  |  | 
5 | Cn1nnc(-c2ccc3[nH]c4nc(Cc5ccccc5)nc(N5CCOCC5)c4c3c2)n1 | 0.91 | 17.32 |  | 177 |  | 
6 | COc1ccc(CCNc2nc(Cc3ccccc3)nc3[nH]c4ccc(-c5nnn(C)n5)cc4c23)cc1OC | 1.24 | 23.63 |  | 65.2 |  | 
7 | Cn1nnc(-c2ccc3[nH]c4nc(Cc5ccccc5)nc(NCCNC(=O)OC(C)(C)C)c4c3c2)n1 | 0.84 | 16.11 | Nd(Toxic) |  |  | 
8 | Cn1nnc(-c2ccc3[nH]c4nc(Cc5ccccc5)nc(Nc5ccccc5)c4c3c2)n1 | 0.94 | 18.02 | Nd(Toxic) |  |  | 
9 | COc1ccc(CCNc2nc(Cc3ccccc3)nc3[nH]c4cc(-c5nnn(C)n5)ccc4c23)cc1OC | 1.94 | 37.07 | Nd(Toxic) |  |  | 
10 | Cn1nnc(-c2ccc3c(c2)[nH]c2nc(Cc4ccccc4)nc(N[C@H]4CC[C@H](O)CC4)c23)n1 | 2.63 | 50.15 |  | 473 |  | 
11 | COc1cc2c(cc1OC)CN(CCNc1nc(Cc3ccccc3)nc3[nH]c4ccc(-c5nnn(C)n5)cc4c13)CC2 | 1.27 | 21.93 |  | 30 |  | 
12 | Cn1nnc(-c2ccc3c(c2)[nH]c2nc(Cc4ccccc4)nc(NCCc4c[nH]c5ccccc45)c23)n1 | 1.03 | 19.73 | Nd(Toxic) |  |  | 
13 | Cn1nnc(-c2ccc3[nH]c4nc(Cc5ccccc5)nc(NCCO)c4c3c2)n1 | 0.99 | 18.99 | Nd(Toxic) |  |  | 
14 | Cn1nnc(-c2ccc3[nH]c4nc(Cc5ccccc5)nc(NCCc5c[nH]c6ccccc56)c4c3c2)n1 | 1.14 | 21.72 |  | 27.7 |  | 
15 | CC(C)n1cnc2c(NCCc3ccc(O)cc3)nc(-c3csc4ccccc34)nc21 |  |  |  |  | 61 | 120
16 | Cn1nnc(-c2ccc3[nH]c4nc(Cc5ccccc5)nc(N5CCNCC5)c4c3c2)n1 | 1.29 | 24.69 |  | 157 |  | 
17 | Cn1nnc(-c2ccc3[nH]c4nc(Cc5ccccc5)nc(NCCN(Cc5ccccn5)Cc5ccccn5)c4c3c2)n1 | 1.27 | 24.23 |  | 26.2 |  | 
18 | COc1ccc(CCNc2nc(Cc3ccccc3)nc3[nH]c4cc(-c5nnn(C)n5)ccc4c23)cc1 | 0.74 | 14.15 | Nd(Toxic) |  |  | 
19 | Cn1nnc(-c2ccc3[nH]c4nc(Cc5ccccc5)nc(Nc5ccc(F)c(Cl)c5)c4c3c2)n1 | 1.08 | 20.65 | Nd(Toxic) |  |  | 

Row | SMILES | fold change (FC) [1] | Activity [2] [%] | EC50 [3] | EC50 [3, 6] [nM] | Activity [4] [%] | EC50 [5] [nM]
20 | Cn1nnc(-c2ccc3[nH]c4nc(Cc5ccccc5)nc(NCc5ccccc5)c4c3c2)n1 | 1.25 | 23.92 | Nd(Toxic) |  |  | 
21 | COc1ccc(CCNc2nc(Cc3ccccc3)nc3[nH]c4ccc(-c5nnn(C)n5)cc4c23)cc1 | 1.15 | 21.96 | Nd(Toxic) |  |  | 
22 | Cc1cc(Cl)ccc1Nc1nc(Cc2ccccc2)nc2[nH]c3ccc(-c4nnn(C)n4)cc3c12 | 1.59 | 30.36 |  | 19.2 |  | 
23 | Cc1ccc(Sc2nc(Cc3ccccc3)nc3[nH]c4ccc(-c5nnn(C)n5)cc4c23)cc1 | 1.34 | 25.53 | Nd(Toxic) |  |  | 
24 | CN(C)c1nc(Cc2ccccc2)nc2[nH]c3cc(-c4nnn(C)n4)ccc3c12 | 0.83 | 15.91 | Nd(Toxic) |  |  | 
25 | Cn1nnc(-c2ccc3[nH]c4nc(Cc5ccccc5)nc(N5CCCC(CO)C5)c4c3c2)n1 (stereo not given) | 1.16 | 22.2 |  | 59.2 |  | 
26 | Cn1nnc(-c2ccc3[nH]c4nc(Cc5ccccc5)nc(N5CCC(CO)CC5)c4c3c2)n1 | 1.06 | 20.29 |  | 359 |  | 
27 | Cn1nnc(-c2ccc3[nH]c4nc(Cc5ccccc5)nc(Nc5ccc(N)cc5)c4c3c2)n1 | 1.15 | 22.01 | Nd(Toxic) |  |  | 
28 | Cn1nnc(-c2ccc3[nH]c4nc(Cc5ccccc5)nc(N[C@H]5CC[C@H](N)CC5)c4c3c2)n1 | 0.98 | 18.72 | Nd(Toxic) |  |  | 
29 | Cn1nnc(-c2ccc3c(c2)[nH]c2nc(Cc4ccccc4)nc(Nc4ccc(F)c(Cl)c4)c23)n1 | 0.83 | 15.79 | Nd(Toxic) |  |  | 
30 | C#Cc1cccc(Nc2nc(Cc3ccccc3)nc3[nH]c4cc(-c5nnn(C)n5)ccc4c23)c1 | 0.89 | 16.98 | Nd(Toxic) |  |  | 
31 | Cn1nnc(-c2ccc3[nH]c4nc(Cc5ccccc5)nc(NCCc5ccc(O)cc5)c4c3c2)n1 | 1.08 | 20.65 | Nd(Toxic) |  |  | 
32 | Cc1cc(Cl)ccc1Nc1nc(Cc2ccccc2)nc2[nH]c3cc(-c4nnn(C)n4)ccc3c12 | 0.8 | 15.37 | Nd(Toxic) |  |  | 
33 | CNC(=O)c1ccc(Nc2nc(Cc3ccccc3)nc3[nH]c4ccc(-c5nnn(C)n5)cc4c23)cc1 | 1.14 | 21.83 | Nd(Toxic) |  |  | 
34 | CC(O)CNc1nc(Cc2ccccc2)nc2[nH]c3ccc(-c4nnn(C)n4)cc3c12 (stereo not given) | 1.63 | 31.2 |  | 167 |  | 
35 | C#Cc1cccc(Nc2nc(Cc3ccccc3)nc3[nH]c4ccc(-c5nnn(C)n5)cc4c23)c1 | 1.36 | 25.99 |  | 56.2 |  | 
36 | Cn1nnc(-c2ccc3c(c2)[nH]c2nc(Cc4ccccc4)nc(NC4CCOCC4)c23)n1 | 1.62 | 30.87 |  | 972 |  | 
37 | Cn1nnc(-c2ccc3[nH]c4nc(Cc5ccccc5)nc(NCCNC(=O)c5ccc6ccccc6n5)c4c3c2)n1 | 1.09 | 20.89 | Nd(Toxic) |  |  | 
